Test results: US20140357725A1, “TERPENE ANALOGUES AND USES THEREOF FOR TREATING NEUROLOGICAL CONDITIONS” (NEUROQUEST INC., priority 2011, published 2014)
Like-named read-outs stand apart in the source and are kept apart here.

Tests used:
TRPV1 = target: T1, TRPV1 (Homo sapiens, UniProt Q8NER1); assay: TRPV1 assay, calcium imaging; assay type: cell-based; conditions: Ca2+ imaging after 1 μM capsaicin, HEK-TRPV cells
T1 construct: expressed in transfected cells; host or cells: HEK-TRPV cells
Method: Briefly, cells were seeded into poly-L-lysine-coated, glass-bottom, 24-well plates (1×10^5 cells/well) and incubated overnight under standard culture conditions to achieve the desired confluency. Culture media was removed and cells were washed twice with HBS prior to incubation for 15 to 60 min at 37° C. with a labelling mixture comprised of Fura-2-AM and pluronic acid in HBS. Data collection occurred over an eight minute period and followed the same general sequence. Following loading, cells were stimulated by addition of 1 μM of capsaicin agonist for 2 min, after which a concentration series of the test sample (e.g. (0.5, 5, 10, 50 μg/ml) was added and imaging continued for an additional 5 min. Capsazepine (20 μM) served as a known reference antagonist, while cells that were mock-treated or received vehicle (e.g., DMSO) alone served as negative controls. For imaging, plates were placed on the stage of an inverted epifluorescence microscope (e.g., Axiovert 200, Zeiss) equipped with a CCD digital camera (e.g., Axiocam MRm, Zeiss). For each well of the plate, a sequence of image pairs (excitation at 340 nm and 380 nm) were collected to capture intracellular calcium flux. Image sequences were analyzed in ImageJ (NIH) and average pixel intensities calculated for six representative cells in each test condition to achieve mean fluorescence.

[1] = system: voltage-gated Na+ channels; assay: Sodium (Na+) channel analysis in rat DRG neurons using whole cell patch-clamp; assay type: cell-based
Method: Isolated DRG neurons were suspended in primary neuron basal media and placed on glass coverslips for incubation in humidified atmosphere of 5% CO2 at 37° C. Coverslip carrying cells was transferred to the bath of an inverted microscope (Zeiss), continuously perfused with oxygenated artificial cerebro-spinal fluid (ACSF) containing (in mM) 124 NaCl, 2.5 KCl, 2 CaCl2, 1 MgSO4, 25 NaHCO3, 1 NaH2PO4, and 10 glucose, at a rate of 2-3 ml/min. Recording of whole-cell membrane currents were made at room temperature. Recording pipette (4-6 MO) was filled with internal solution containing (in mM) 145 K-gluconate, 5 NaCl, 1 MgCl2, 0.2 EGTA, 10 HEPES, 2 Mg-ATP, 0.1 Na-GTP, and 10 phosphocreatine. To isolate Na^+ currents, DRG neurons were superfused with ACSF containing tetraethylammonium chloride (TEA) 5 mM, cesium chloride (CsCl) 100 μM and cadmium chloride (CdCl) 1 mM, to block potassium and calcium currents. OBM compounds were freshly dissolved in ASCF containing TEA, CsCl and CdCl, prior application via the bath.
For recording Na^+ currents, cells were held at −60 mV before applying a conditioning hyperpolarizing step (50 ms) to −90 mv to reactivate the voltage-gated Na^+ channels. The conditioning pulse was followed by depolarizing (150 ms) test pulses to 50 mV in 10 mV increments. Na^+ currents were recorded in absence, after 3 min in presence of the drugs and after a recovery time of 3 min.

zebrafish embryos = assay: Zebrafish response assay (embryonic touch response/swim behaviour, complete anaesthesia); assay type: in vivo; conditions: Danio rerio, 1.5 h; complete anaesthesia (scale 1) in 50% of embryos, 90 min at 28° C., 54 hpf AB wild type embryos
Description: Briefly, the ZEA assay involved applying essential oils, fractions or individual compounds to developmentally staged zebrafish embryos followed by monitoring of embryonic touch response/swim behaviour and evaluation of the dose response relationship for each substance. Using a four point scale to describe the embryonic behaviours (Table 4), initial analysis focused on monitoring and recording these changes and evaluating the level of bioactivity. […] (optimal temperature for embryonic growth) in the diluted compound. • The four point scale (Table 4) was used to evaluate the touch response and swim behaviour for each embryo in all wells. • The effectiveness of the compound was based on its ability to generate complete anesthesia (scale: 1) in 50% of the embryos at a given concentration (EC50). • The EC50 values were calculated using GraphPad Prism® software to analyze the log (dose) response curves. The results are shown in Table 3, and in FIG. 3 as a dose response curve of zebrafish embryo assay, a percentage response versus percentage of compound present.

[2] = Na+ currents, rat DRG neurons, whole-cell patch clamp, 3 min in presence of drug, read-out: IC50

T1 sequence (Q8NER1 whole entry, species assumed): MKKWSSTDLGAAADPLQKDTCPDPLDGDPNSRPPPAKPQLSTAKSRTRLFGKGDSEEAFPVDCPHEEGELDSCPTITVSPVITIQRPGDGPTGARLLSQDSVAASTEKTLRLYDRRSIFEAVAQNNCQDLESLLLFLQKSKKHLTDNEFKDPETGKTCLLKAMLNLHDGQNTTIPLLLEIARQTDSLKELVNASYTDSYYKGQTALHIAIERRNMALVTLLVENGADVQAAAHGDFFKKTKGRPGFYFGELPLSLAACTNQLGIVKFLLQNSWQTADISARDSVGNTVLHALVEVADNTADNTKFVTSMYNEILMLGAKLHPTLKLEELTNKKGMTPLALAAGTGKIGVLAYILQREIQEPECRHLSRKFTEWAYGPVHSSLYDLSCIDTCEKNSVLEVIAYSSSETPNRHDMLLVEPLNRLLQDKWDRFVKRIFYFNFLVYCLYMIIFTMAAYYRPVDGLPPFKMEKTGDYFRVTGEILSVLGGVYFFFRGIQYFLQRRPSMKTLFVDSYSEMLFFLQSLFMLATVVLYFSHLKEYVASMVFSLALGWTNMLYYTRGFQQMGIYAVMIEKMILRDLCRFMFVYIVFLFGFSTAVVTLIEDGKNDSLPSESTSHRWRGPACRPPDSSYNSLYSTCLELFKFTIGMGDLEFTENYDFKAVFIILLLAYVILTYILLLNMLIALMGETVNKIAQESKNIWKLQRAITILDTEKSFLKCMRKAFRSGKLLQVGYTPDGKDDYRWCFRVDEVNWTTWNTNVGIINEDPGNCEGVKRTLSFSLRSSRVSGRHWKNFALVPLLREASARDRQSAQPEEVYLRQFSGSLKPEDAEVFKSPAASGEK

Row | SMILES | IC50 (TRPV1) | IC50 [1, 2] | IC50 ([1]; percentage sodium current versus concentration, FIG. 1, read-out: Calculated IC50) | EC50 (zebrafish embryos)
1 | CC(C)=CCCC1(C)CC1CO (centres unmarked) [OBM 2979, (2-methyl-2-(4-methylpent-3-en-1-yl)cyclopropyl)methanol] | agonist | 100 to 1000 µM | 700 µM | 1 to 100 µM
2 | COCC1CC1(C)CCC=C(C)C (centres unmarked) [OBM 2989, 2-(methoxymethyl)-1-methyl-1-(4-methylpent-3-en-1-yl)cyclopropane] | – | 5000 to 10000 µM | – | > 450 µM
3 | CC(C)=CCCC1(C)CC1COCc1ccccc1 (centres unmarked) [OBM 2993] | – | < 10000 µM | – | > 450 µM
4 | CC(C)=CCCC1(C)CC1COCc1ccccc1Br (centres unmarked) [OBM 2994, 1-bromo-2-(((2-methyl-2-(4-methylpent-3-en-1-yl)cyclopropyl)methoxy)methyl)benzene] | – | < 10000 µM | – | > 450 µM
5 | CC(C)=CCCC1(C)CC1COCc1ccccc1Cl (centres unmarked) [OBM 2995, 1-chloro-2-(((2-methyl-2-(4-methylpent-3-en-1-yl)cyclopropyl)methoxy)methyl)benzene] | – | < 10000 µM | – | > 450 µM
6 | CC(C)=CCCC1(c2ccccc2)CC1CO (centres unmarked) [OBM 2999, (2-(4-methylpent-3-en-1-yl)-2-phenylcyclopropyl) methanol] | – | 1000 to 5000 µM | – | 100 to 450 µM
